# Laboratory results from US10802012B2, “Optical cytometry to determine cell mass changes in response to a biologically active agent” (The Regents of the University of California, priority 2009, dated 2020).
# Tests used:
# fibroblasts [1] = details: low doses (0.1-1 μM); cited from earlier work
# fibroblasts [2] = details: low doses (0.1-1 μM); cited from earlier work; remark: listed apart in the source
# NIH3T3 cells [3] = test: Mechanical imaging interferometry (MII) viscoelastic measurement of cells before and after cytochalasin B; assay type: cell-based, mouse
# Method: The population measurements of the NIH 3T3 fibroblasts and the HEK 293T […] were conducted over several consecutive days. Both cell types were cultured at the same time on a series of poly-L-lysine coated 0.20×10 mm round glass coverslips, in 1×DMEM with 10% fetal bovine serum in a laboratory incubator under standard cell culture conditions. Preceding measurement, a single round coverslip containing cells would be removed from the culture dish and quickly placed in the microscope test chamber. Microreflectors would be added to media from the original culture dish, which would then be pipetted slowly onto the cells and the sample chamber sealed. Cells were allowed to equilibrate in the test chamber for 30 minutes before measurement. The average radius of the measured microreflectors was 3.79 μm, and the average applied force was 190 pN. The average cell height was 8.1 μm and the average maximum indentation depth per cell was 660 nm.
# The three constants for a viscoelastic solid were determined for each measurement by fitting the time-dependent force-displacement curves of the microreflectors to the following equation (see, e.g. Cheng et al., (2005) Mechanics of Materials 37, 213-226):
# [formula] Our measurements assumed Poisson's ratio for the cell, v=0.5. Curves were fitted using the Levenberg-Marquardt non-linear least squares procedure (Origin Labs). The z-statistic was used to compare the log-transformed sample means and determine p values. The Bartlett test was used to confirm homogeneity of the compared sample variances.
# To remain within the semi-infinite layer assumptions of this model, we present fits only for observations where the minimum cell thickness at the location of the microreflector was 3 μm or greater. A majority of the measurements fit the model elastic constants E1 and E2 well, having a relative standard error of fit <25%. There was larger uncertainty in the viscosity factor, η, with only 30% of the fits having a relative standard error <25%.
# (§1) Cells were prepared for measurement as described above. A continuous infusion of fresh media into the sample chamber, warmed to 37 C and pre-saturated with 5%CO2, was maintained at all times. The rate of infusion was 5 μL/min, equivalent to exchanging the entire volume of the test chamber in 20 minutes. Cells were equilibrated under flow for 45 minutes before measurement. Flow was halted during each measurement cycle, which lasted approximately 200 seconds. The first, a media-only measurement was conducted at 1 hour, immediately followed by introduction of cytochalasin B into the infusing media. Initially, the cytochalasin B was dissolved in DMSO and diluted in DMEM to produce a stock concentration 1000× the working concentration (1 μM or 10 μM). At the appropriate time, the stock solution was introduced into the infusion media reservoir to produce the desired final concentration.
# fibroblasts [4] = details: low doses (0.1-1 μM); cited from earlier work; remark: listed apart in the source
# NIH3T3 cells [5] = test: Cell morphology in intensity images during cytochalasin treatment; assay type: cell-based, mouse; details: 1 μM, up to 45 minutes
# Method: as §1
# [6] = NIH3T3 cells, 1 μM, matched individual cell basis
# [7] = NIH3T3 cells, FIG. 6B, normal force applied for 100 seconds, before vs after treatment
structure (smiles),measurement,setting,value
C=C1[C@@H](C)[C@H]2[C@H](Cc3ccccc3)NC(=O)[C@]23OC(=O)/C=C/[C@H](O)CCC[C@@H](C)C/C=C/[C@H]3[C@@H]1O [cytochalasin B],change in Young's modulus by AFM indentation,fibroblasts [1],"minimal, if any, measurable change in Young's modulus"
same,changes in the morphology of fibroblasts,fibroblasts [2],does not produce large changes in the morphology
same,mean of the log-transformed distribution of E2 (delayed elastic constant) after treatment,"NIH3T3 cells [3]; NIH3T3 cells (n=30), 1 μM, before treatment 2.30, p=0.04",2.02
same,mean of the log-transformed distribution of E1 (instantaneous elastic constant) after treatment,"NIH3T3 cells [3]; NIH3T3 cells (n=30), 1 μM, before treatment 3.19, p=0.10",2.92
same,mean of the log-transformed viscous constant η after treatment,"NIH3T3 cells [3]; NIH3T3 cells (n=30), 1 μM, before treatment 3.39, p=0.47",3.36
same,matched individual cells with E1 lower after treatment,NIH3T3 cells [3]; [6],10/13
same,matched individual cells with E2 lower after treatment,NIH3T3 cells [3]; [6],7/10
same,matched individual cells with viscosity η lower after treatment,NIH3T3 cells [3]; [6],6/11
same,"change in viscoelastic behavior, force-displacement curve of probe 1",NIH3T3 cells [3]; [7],appears to be unchanged
same,"change in viscoelastic behavior, force-displacement curve of probe 4",NIH3T3 cells [3]; [7],change in elastic rebound behavior
same,"change in viscoelastic behavior, force-displacement curves of probes 2 and 3",NIH3T3 cells [3]; [7],clear decrease in stiffness
same,elasticity of treated cells,"NIH3T3 cells [3]; NIH3T3 cells, low dose (1 μM)",treated cells were less elastic
same,cell migration,fibroblasts [4],inhibit cell migration
same,change in cell morphology,NIH3T3 cells [5],only a slight change in cell morphology
